Source: US20080009019A1, “HIGH THROUGHPUT METHOD FOR SCREENING CANDIDATE COMPOUNDS FOR BIOLOGICAL ACTIVITY” (SmithKline Beecham Corporation, priority 2001, published 2008)

Tests used:
Type in all cases: cell-based
MC1R [1] = target: T1, MC1R (Homo sapiens, UniProt Q01726); experiment: Well-based reporter assay
MC1R [2] = target: T1, MC1R; experiment: Bead-based lawn assay, peptides photocleaved from beads in lawn of CHO-6CRE-luc+-MC1R cells; set-up: expressed in transfected cells; conditions: for response value at plateau compared with maximal response to [NDP]-α-MSH: 3-minute UV time point, FIG. 11B versus FIG. 11A; for UV exposure time point at which response began to plateau: 5 beads per peptide pushed into lawn, UV 365 nm for 0, 0.5, 1, 3, 10 minutes, FIG. 11B
Procedure: Agonists for GPCRs were assayed using beads to which peptides or compounds are attached by a photolinker. The beads were either mixed in the agarose or were applied to the surface of the lawn. The attached compound or peptide was cleaved by exposure to UV light.
Cell culture and assay methods were as described in Example 1. Hexamer peptides were linked to 200 micrometer […]™ microsphere beads (polystyrene core with […]™ pegs—available from Rapp Polymere GmbH of Tubingen, Germany) by a photocleavable linker. Two peptides were tested for validation purposes: Peptide 1-Ac-NH-Ser-Val-dHis-dPhe-Arg-Trp (SEQ ID NO:1) and Peptide 2-Ac-NH-Val-Ala-dHis-dPhe-Arg-Tyr (SEQ ID NO:2). Beads were added to the agarose lawn either by pushing the bead into the agarose with forceps or by suspending the beads in the melted agarose/cell mixture. Peptides were cleaved from the beads by exposure to ultraviolet light using a UV lamp set at 365 nm wavelength (λ).
A time course of delivery of MC1R agonist peptides 1 and 2, which were linked to beads (described in methods), to a lawn of CHO-6CRE-luc^+-MC1R cells is shown in FIGS. 10A-10E. The peptides were cleaved from the beads by increasing the time of UV exposure. FIGS. 10A-10E depict UV exposure for 0, 0.5, 1, 3, and 10 minutes, respectively. A concentration-response curve for of [NDP]-α-MSH was run in row 1 on each lawn at the same concentrations as in FIG. 9. Five (5) beads each of peptide 1 and 2 were pushed into the agarose layer with forceps. Peptide 1 and 2 were on the left and right of each lawn, respectively.
FIG. 11A is a line graph representation of the average luminescence of the 5 beads at each time point. The response was calculated by subtracting the background z value for the lawn from the z value for each area to which the bead was applied. The magnitude of response is dictated by both the response of the reporter cell line and the amount of peptide that can be released from the beads. Both peptide 1 and 2 are full agonists for MC1R when tested in a well-based reporter assay so both peptides are capable of eliciting a response similar to [NDP]-α-MSH.

[3] = target: T2, corticotrophin releasing factor receptor (CRHR1) (Homo sapiens, UniProt P34998); experiment: Agarose lawn reporter assay, CHO-6xCRE-luc+ cells expressing CRH1 receptor; conditions: approximately 10 nl of 5×10^−4 M to 1.5×10^−6 M peptide solution on lawn by HDR pin tool; 4 hours at 37° C.; FIGS. 7A-7B
T2 construct: expressed in transfected cells
T2 sequence (P34998 24-415): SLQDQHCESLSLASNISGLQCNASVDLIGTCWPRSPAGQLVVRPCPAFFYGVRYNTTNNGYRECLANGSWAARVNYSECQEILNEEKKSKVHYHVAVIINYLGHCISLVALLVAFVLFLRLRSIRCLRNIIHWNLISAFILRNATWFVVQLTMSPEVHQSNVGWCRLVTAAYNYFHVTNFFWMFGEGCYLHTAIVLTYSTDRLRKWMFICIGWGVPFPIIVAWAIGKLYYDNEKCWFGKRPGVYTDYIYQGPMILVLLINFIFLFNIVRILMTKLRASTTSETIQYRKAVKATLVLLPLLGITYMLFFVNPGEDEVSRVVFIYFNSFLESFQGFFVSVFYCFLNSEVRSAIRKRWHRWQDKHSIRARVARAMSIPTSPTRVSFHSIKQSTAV
Source text: Chinese hamster ovary (CHO) cells were transfected with a 6xCRE-luciferase^+reporter gene. A stable host cell line was selected, into which cloned human receptors were transfected. Stable cell lines expressing these receptors were selected for screening purposes.
A reporter gene host cell line stably expressing a reporter construct comprising 6 cyclic AMP response elements (CREs) driving the expression of luciferase (6xCRE-luciferase^+) was generated as described by Goetz et al., (2000) J. Biomolec. Screening 5:377-384. […]
1.5 grams of LMP agarose were dissolved in 100 ml of assay medium (DMEM/F12 medium containing 2% glutamine) in a microwave oven. […] The cells were collected from suspension culture and were re-suspended in 60 ml of assay medium for determination of quantity of cells. […]
Solutions of peptides were then delivered to the lawn using a HDR 96-pin tool that delivers approximately 10 nanoliters (nl) of solution. […] Luminescence was detected using a VIEWLUX® camera.
Images were acquired by focusing luminescent light from the OMNI PLATE® tray, for 90 seconds, onto a CCD camera chip via a telecentric lens. […] The gray intensity was determined by scanning each grid unit to determine where the highest point in the region was located. […] The x and y co-ordinates were recorded to facilitate the production of graphical representations of the data.

T1 sequence (Q01726 whole entry): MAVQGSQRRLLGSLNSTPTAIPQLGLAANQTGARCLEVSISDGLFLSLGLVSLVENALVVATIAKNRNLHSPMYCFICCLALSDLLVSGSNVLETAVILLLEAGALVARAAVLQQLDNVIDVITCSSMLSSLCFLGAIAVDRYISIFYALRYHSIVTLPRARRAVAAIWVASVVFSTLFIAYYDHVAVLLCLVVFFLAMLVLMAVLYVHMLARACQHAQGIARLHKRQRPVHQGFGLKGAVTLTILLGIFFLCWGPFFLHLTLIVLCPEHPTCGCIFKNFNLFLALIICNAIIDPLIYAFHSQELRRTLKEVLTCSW

Substance	agonist character for MC1R (MC1R [1])	response value at plateau compared with maximal response to [NDP]-α-MSH (MC1R [2])	UV exposure time point at which response began to plateau (MC1R [2]) [min]	concentration-response curve of luminescence activity [3]
Ac-NH-Ser-Val-dHis-dPhe-Arg-Trp [peptide 1]	full agonists	well below the maximal response to [NDP]-α-MSH	3	
Ac-NH-Val-Ala-dHis-dPhe-Arg-Tyr [peptide 2]	full agonists	well below the maximal response to [NDP]-α-MSH	3	
corticotrophin releasing factor [CRH]				concentration-response curve of luminescence activity was only observed when peptide was applied to the cell line expressing the appropriate receptor
